PubChem BioAssay (NCI)
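Protocol summary: plate cells (96-well), add compound at 5 concentrations, incubate 48 h, interpolate endpoints linearly. GI50: concentration for 50% inhibition of growth. TGI marks complete inhibition of growth.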

Experiments:
Assay in all cases: NCI anticancer screen, dose series, 48 h
HT29 colon = test system: HT29 colon
U251 CNS = test system: U251 CNS
ACHN renal = test system: ACHN renal
HCT-116 colon = test system: HCT-116 colon
T-47D breast = test system: T-47D breast
OVCAR-8 ovarian = test system: OVCAR-8 ovarian
CCRF-CEM leukemia = test system: CCRF-CEM leukemia
HOP-62 NSCLC = test system: HOP-62 NSCLC
UACC-62 melanoma = test system: UACC-62 melanoma
RXF 393 renal = test system: RXF 393 renal
BT-549 breast = test system: BT-549 breast

| SMILES | TGI (HT29 colon) [µM] | TGI (U251 CNS) [µM] | TGI (ACHN renal) [µM] | TGI (HCT-116 colon) [µM] | TGI (T-47D breast) [µM] | TGI (OVCAR-8 ovarian) [µM] | TGI (CCRF-CEM leukemia) [µM] | TGI (HOP-62 NSCLC) [µM] | TGI (UACC-62 melanoma) [µM] | TGI (RXF 393 renal) [µM] | TGI (BT-549 breast) [µM] | GI50 (HOP-62 NSCLC) [µM] | GI50 (HCT-116 colon) [µM] | GI50 (UACC-62 melanoma) [µM] | GI50 (ACHN renal) [µM] | GI50 (T-47D breast) [µM] | GI50 (OVCAR-8 ovarian) [µM] | GI50 (CCRF-CEM leukemia) [µM] | GI50 (BT-549 breast) [µM] | GI50 (RXF 393 renal) [µM] |
| --- | --- | --- | --- | --- | --- | --- | --- | --- | --- | --- | --- | --- | --- | --- | --- | --- | --- | --- | --- | --- |
| C/C(Cl)=N\OC(=O)Nc1ccccc1C(F)(F)F | 34.7 | > 100 | 35.2 | > 100 | > 100 | > 100 | 53 | – | – | – | – | – | – | – | – | – | – | – | – | – |
| COC(=O)NCCc1[nH]nc2c1C(=O)C=C(OC)C2=O | > 100 | 32 | 37 | 32.6 | – | 42.8 | 45.8 | 36 | 48.7 | 31.4 | – | – | – | – | – | – | – | – | – | – |
| Cc1ccc(/C=C2\NC(=S)N(CN3CCOCC3)C2=O)cc1 | > 100 | > 100 | > 100 | > 100 | – | > 100 | > 100 | > 100 | > 100 | – | – | – | – | – | – | – | – | – | – | – |
| COC(=O)C(NC(=O)CNC(=O)CSc1nnc(COc2ccc(Cl)cc2)n1-c1ccccc1)C(C)C (stereo not given) | 35.3 | 35.5 | 31.8 | 31.4 | – | 40.8 | > 100 | 92 | 31.8 | 32.8 | 34 | – | – | – | – | – | – | – | – | – |
| Cc1cc2c(cc1O)CC[C@@H]1[C@@H]2CC[C@]2(C)[C@@H](O)CC[C@@H]12 | 31.6 | 18.2 | 51.9 | 13.4 | 38.9 | 51.7 | 27.4 | 24.9 | 21 | – | 20.1 | 10.9 | 3.63 | 5.39 | – | – | – | – | – | – |
| C[n+]1c2ccccc2c(CNC(CCC(N)=O)C(=O)O)c2ccccc21 (stereo not given) | 7.01 | 12.8 | 5.41 | 1.21 | – | 7.55 | 3.29 | 12.3 | 6.19 | 6.18 | 10.1 | – | – | – | – | – | – | – | – | – |
| O=[N+]([O-])c1ccc(Cl)cc1C1ON=C(c2ccccc2)N1C12CC3CC(CC(C3)C1)C2 (stereo not given) | > 100 | > 100 | > 100 | > 100 | > 100 | – | > 100 | > 100 | > 100 | > 100 | – | – | – | – | – | – | – | – | – | – |
| N[C@@H]1c2c(Br)sc(Br)c2[C@H](O)[C@@H]1O | > 100 | > 100 | > 100 | > 100 | > 100 | > 100 | > 100 | – | > 100 | > 100 | > 100 | – | – | – | – | – | – | – | – | – |
| CN(C)c1ccc(/C=C/c2sc3ccc4ccccc4c3[n+]2C)cc1 | – | – | > 100 | – | – | 1.67 | > 100 | – | – | – | – | – | – | – | 0.537 | 0.367 | 0.285 | 0.33 | – | – |
| O=[N+]([O-])CC(SCc1ccccc1)c1ccc2c(c1)OCO2 (stereo not given) | 7.64 | 18.7 | 28.3 | 4.46 | 47.7 | 19.2 | 8.74 | 33 | 25.2 | 3.63 | – | – | – | – | – | – | – | – | – | – |
| CN1CCN(CC(=O)Nc2ccc3ncnc(Nc4ccc(Oc5cccc(C(F)(F)F)c5)c(Cl)c4)c3c2)CC1 | – | – | 2.33 | – | 4.1 | – | – | – | 3.4 | 2.89 | 2.85 | – | – | 1.83 | 1.12 | 1.66 | – | – | 1.47 | 1.41 |
| C=C(C)CCC1CCCCC(CN(C)C)C1=O (stereo not given) | > 100 | > 100 | > 100 | > 100 | > 100 | > 100 | > 100 | > 100 | > 100 | – | – | – | – | – | – | – | – | – | – | – |
| c1ccc2nc3[nH]c4ccccc4c3cc2c1 | 1.75 | 1.99 | 12.2 | – | – | 2.35 | > 100 | – | 2.2 | 2.66 | 2.87 | – | – | – | – | – | – | – | – | – |
| O=C1CN(c2ccc(Cl)cc2)C(=O)CN1CCN1CC(=O)N(c2ccc(Cl)cc2)CC1=O | > 100 | > 100 | > 100 | > 100 | – | > 100 | > 100 | > 100 | > 100 | > 100 | > 100 | – | – | – | – | – | – | – | – | – |
| CN1N=C2c3ccccc3CC[C@H]2C1c1ccccc1 (stereo not given in full) | > 100 | > 100 | > 100 | > 100 | – | > 100 | > 100 | > 100 | > 100 | 81.5 | – | – | – | – | – | – | – | – | – | – |
| NC1CC2C3CCC2C1C3=O (stereo not given) | > 100 | > 100 | > 100 | > 100 | > 100 | > 100 | > 100 | > 100 | > 100 | > 100 | – | – | – | – | – | – | – | – | – | – |
| CCc1cccc(C(C)C)c1NC(=O)C(=O)C(C(=O)C(=O)OC)c1nc2ccccc2[nH]c1=O (stereo not given) | > 100 | > 100 | > 100 | > 100 | – | > 100 | > 100 | – | > 100 | > 100 | – | – | – | – | – | – | – | – | – | – |
| Oc1[nH]c2ccccc2c1N=NC1=NCCCCN1 | > 100 | > 100 | > 100 | > 100 | > 100 | > 100 | > 100 | > 100 | > 100 | – | > 100 | – | – | – | – | – | – | – | – | – |
| COc1cc(/C=C2\N=C(c3ccccc3)N(C3Nc4cc5c(cc4S3)NC(N3C(=O)/C(=C/c4cc(OC)c(OC)c(OC)c4)N=C3c3ccccc3)S5)C2=O)cc(OC)c1OC (stereo not given) | > 100 | > 100 | > 100 | > 100 | > 100 | > 100 | – | > 100 | – | > 100 | > 100 | – | – | – | – | – | – | – | – | – |
| CO/N=C1\CCC2(O)C3Cc4ccc(O)c5c4C2(CCN3CC2CC2)[C@H]1O5 (stereo not given in full) | > 100 | > 100 | > 100 | > 100 | > 100 | > 100 | > 100 | > 100 | > 100 | – | > 100 | – | – | – | – | – | – | – | – | – |
| COC1(OC)N=C(N)C2(C#N)C(C)CC(=O)N(N(C)C)C12C#N (stereo not given) | > 100 | > 100 | > 100 | > 100 | > 100 | > 100 | > 100 | > 100 | > 100 | > 100 | – | – | – | – | – | – | – | – | – | – |
| Cc1cc(Cc2cc(C)c(NC(=O)C(=O)C3C(=O)NC(=S)NC3=O)c(C(C)C)c2)cc(C(C)C)c1NC(=O)C(=O)C1C(=O)NC(=S)NC1=O | > 100 | > 100 | > 100 | > 100 | – | > 100 | > 100 | > 100 | > 100 | > 100 | – | – | – | – | – | – | – | – | – | – |
